In US8575135B2 (Gilead Sciences, Inc., priority 2011, dated 2013):
Like-named read-outs stand apart in the source and are kept apart here.

Experiments:
Test in all cases: microbe, parasite or virus in culture
Details in all cases: Hepatitis C virus
[1] = tested on: stable HCV 1a RLuc replicon cells (genotype 1a H77 replicon); assay type: cell-based
Description: (§1) Evaluation of Cell-Based Anti-HCV Activity:
(§2) Antiviral potency (EC50) was determined using a Renilla luciferase (RLuc)-based HCV replicon reporter assay. […] To perform the assay for genotype 2a (with M31 present in NS5A) or 2b, NS5A chimeric genotype 2a JFH-1 replicons that encodes a RLuc-Neo reporter and either genotype 2a J6 strain NS5A gene or genotype 2b MD2b-1 strain NS5A gene (both with M31 present) respectively, were either transiently transfected (t) into Huh-Lunet cells or were established as stably replicating replicon cells (s) is provided. Either cells were dispensed into 384-well plates for EC50 assays. To perform the assay for genotype 3 and 4, NS5A chimeric genotype 1b Con1 replicons that encodes a Pi-RLuc reporter and either genotype 3a S52 strain NS5A gene or genotype 4a ED43 strain NS5A gene respectively, were transiently transfected (t) into Huh-Lunet cells, which were subsequently dispensed into 384-well plates. Compounds were dissolved in DMSO at a concentration of 10 mM and diluted in DMSO either manually or using an automated pipeting instrument. Serially 3-fold diluted compounds were either manually mixed with cell culture media and added to the seeded cells or directly added to the cells using an automated instrument. […] 72 hours later, cells were lysed and Renilla luciferase activity quantified as recommended by the manufacturer (Promega-Madison, Wis.). Non-linear regression was performed to calculate EC50 values.

[2] = tested on: stable HCV 2a JFH-1 Rluc replicon cells (L31 present in NS5A); assay type: cell-based
[3] = tested on: 1a Pi-Rluc replicon with Q30R in genotype 1a NS5A; assay type: cell-based, HCV
Description: as §2
To determine the antiviral potency (EC50) against resistance mutants, resistance mutations, including M28T, Q30R, Q30H, L31M, and Y93C in genotype 1a NS5A and Y93H in genotype 1b NS5A, were introduced individually into either 1a Pi-Rluc or 1b Pi-Rluc replicons by site directed mutagenesis. Replicon RNA of each resistant mutant was transiently transfected into Huh-7-derived cured-51 cells and antiviral potency was determined on these transfected cells as described above.

[4] = tested on: NS5A chimeric genotype 2a JFH-1 replicon with genotype 2b MD2b-1 strain NS5A gene (M31 present); assay type: cell-based, HCV
Description: as §1, §2

[5] = tested on: NS5A chimeric genotype 2a JFH-1 replicon with genotype 2a J6 strain NS5A gene (M31 present); assay type: cell-based, HCV
Description: as §1, §2

[6] = tested on: NS5A chimeric genotype 1b Con1 replicon with genotype 3a S52 strain NS5A gene; assay type: cell-based, HCV
Description: as §1, §2

SMILES	EC50 ([1]; read-out: 1a) [nM]	EC50 ([1]; read-out: 1a (nM)) [nM]	EC50 ([2]; read-out: 2a JFH) [nM]	EC50 ([2]; read-out: 2a JFH (nM)) [nM]	EC50 ([3]; read-out: 1a Q30R) [nM]	EC50 ([3]; read-out: 1a Q30R (nM)) [nM]	EC50 ([4]; read-out: 2b) [nM]	EC50 ([4]; read-out: 2b (t) (nM)) [nM]	EC50 ([5]; read-out: 2a J6) [nM]	EC50 ([5]; read-out: 2a Jb (t) (nM)) [nM]	EC50 ([6]; read-out: 3a) [nM]	EC50 ([6]; read-out: 3a (nM)) [nM]	EC50 ([4]; read-out: 2b (s) (nM)) [nM]
COC[C@H]1C[C@@H](c2ncc(-c3ccc4c(c3)COc3cc5c(ccc6nc([C@@H]7C[C@@H]8C[C@@H]8N7C(=O)[C@@H](NC(=O)OC)C(C)C)[nH]c65)cc3-4)[nH]2)N(C(=O)[C@H](NC(=O)OC)c2ccccc2)C1 [Example OV, Methyl {(1R)-2-[(2S,4S)-2-(5-{2-[(1S,3S,5S)-2-{(2S)-2-[(methoxycarbonyl)amino]-3-methylbutanoyl}-2-azabicyclo[3.1.0]hex-3-yl]-1,11-dihydroisochromeno[4′,3′:6,7]naphtho[1,2-d]imidazol-9-yl}-1H-imidazol-2-yl)-4-(methoxymethyl)pyrrolidin-1-yl]-2-oxo-1-phenylethyl}carbamate]	< 1	0.01	< 1	0.007	< 1	0.031	< 1	0.046	< 1	0.113	< 1	0.013	–
COC[C@H]1C[C@@H](c2ncc(-c3ccc4c(c3)COc3cc5c(ccc6nc([C@@H]7C[C@H]8C[C@H]8N7C(=O)[C@@H](NC(=O)OC)C(C)C)[nH]c65)cc3-4)[nH]2)N(C(=O)[C@H](NC(=O)OC)c2ccccc2)C1 [Example PR, methyl {(1R)-2-[(2S,4S)-2-(5-{2-[(1R,3S,5R)-2-{(2S)-2-[(methoxycarbonyl)amino]-3-methylbutanoyl}-2-azabicyclo[3.1.0]hex-3-yl]-1,11-dihydroisochromeno[4′,3′:6,7]naphtho[1,2-d]imidazol-9-yl}-1H-imidazol-2-yl)-4-(methoxymethyl)pyrrolidin-1-yl]-2-oxo-1-phenylethyl}carbamate]	< 1	0.013	< 1	0.007	< 1	0.045	< 1	0.028	< 1	0.022	< 1	0.018	–
COC(=O)N[C@H](C(=O)N1[C@@H](C)CC[C@H]1c1nc2ccc3cc4c(cc3c2[nH]1)OCc1cc(-c2cnc([C@@H]3C[C@H](C)CN3C(=O)[C@H](NC(=O)OC)c3ccccc3)[nH]2)ccc1-4)C(C)C [Example QF, Methyl {(2S)-1-[(2S,5S)-2-(9-{2-[(2S,4S)-1-{(2R)-2-[(methoxycarbonyl)amino]-2-phenylacetyl}-4-methylpyrrolidin-2-yl]-1H-imidazol-5-yl}-1,11-dihydroisochromeno[4′,3′:6,7]naphtho[1,2-d]imidazol-2-yl)-5-methylpyrrolidin-1-yl]-3-methyl-1-oxobutan-2-yl}carbamate]	< 1	0.008	< 1	0.004	< 1	0.032	< 1	0.015	< 1	0.053	< 1	0.02	0.011
COC(=O)N[C@H](C(=O)N1C[C@@H](C)C[C@H]1c1ncc(-c2ccc3c(c2)COc2cc4c(ccc5nc([C@@H]6CC[C@H](C)N6C(=O)[C@@H](NC(=O)OC)C(C)C)[nH]c54)cc2-3)[nH]1)C(C)C [Example QG, Methyl {(2S)-1-[(2S,5S)-2-(9-{2-[(2S,4S)-1-{(2S)-2-[(methoxycarbonyl)amino]-3-methylbutanoyl}-4-methylpyrrolidin-2-yl]-1H-imidazol-5-yl}-1,11-dihydroisochromeno[4′,3′:6,7]naphtho[1,2-d]imidazol-2-yl)-5-methylpyrrolidin-1-yl]-3-methyl-1-oxobutan-2-yl}carbamate]	< 1	0.005	< 1	0.004	< 1	0.071	< 1	0.065	< 1	0.551	< 1	0.016	0.043
COC(=O)N[C@H](C(=O)N1[C@@H](C)CC[C@H]1c1nc2ccc3cc4c(cc3c2[nH]1)OCc1cc(-c2cnc([C@@H]3C[C@H](C)CN3C(=O)[C@@H](NC(=O)OC)[C@@H](C)OC)[nH]2)ccc1-4)C(C)C [Example QH, Methyl {(2S)-1-[(2S,5S)-2-(9-{2-[(2S,4S)-1-{(2S,3R)-3-methoxy-2-[(methoxycarbonyl)amino]butanoyl}-4-methylpyrrolidin-2-yl]-1H-imidazol-5-yl}-1,11-dihydroisochromeno[4′,3′:6,7]naphtho[1,2-d]imidazol-2-yl)-5-methylpyrrolidin-1-yl]-3-methyl-1-oxobutan-2-yl}carbamate]	< 1	0.007	< 1	0.005	< 1	0.051	< 1	0.051	< 1	0.182	< 1	0.02	0.049
